In article PMC5127577, “Biochemical Characterization of Glutamate Racemase—A New Candidate Drug Target against Burkholderia cenocepacia Infections” (PLoS ONE, 2016):
Read-outs that look alike come from different tables or passages of the source.

How the values were obtained:
GR from B. subtilis = conditions: cited from earlier work
[1] = target: T1, B. cenocepacia J2315 glutamate racemase (BcGR) (Burkholderia cenocepacia, UniProt B4EEM8); assay: BcGR enzymatic activity inhibition, spectrophotometric coupled assay (L-glutamate dehydrogenase/diaphorase); conditions: for BcGR inhibition in screening: compound 100 μM; for inhibitory effect in the presence of EDTA: excess of EDTA; for mode of inhibition: steady state kinetics, D-Glu 5–50 mM, compound 0–100 μM
T1 sequence (B4EEM8 1-285): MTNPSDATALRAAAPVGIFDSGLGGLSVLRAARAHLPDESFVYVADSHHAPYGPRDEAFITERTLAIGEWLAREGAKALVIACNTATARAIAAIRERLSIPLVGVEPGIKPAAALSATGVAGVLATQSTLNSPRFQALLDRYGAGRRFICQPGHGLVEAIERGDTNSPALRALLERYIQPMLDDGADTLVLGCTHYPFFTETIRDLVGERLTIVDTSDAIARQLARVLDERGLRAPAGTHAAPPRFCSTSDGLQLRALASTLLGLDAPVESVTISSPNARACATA

GR from B. anthracis = conditions: cited from earlier work
B. cenocepacia J2315 = assay: Minimal Inhibitory Concentration, 2-fold microdilution, resazurin method; assay type: cell-based, Burkholderia cenocepacia J2315; conditions: planktonic cells, 8 to 1024 μg/ml tested, two days 37°C

Compound | Ki (GR from B. subtilis) | BcGR inhibition in screening ([1]; 20 mM D-Glu) | MIC (concentration necessary to inhibit growth) (B. cenocepacia J2315) | IC50 ([1]; 20 mM D-Glu, 37°C, pH 8.0) | inhibitory effect in the presence of EDTA [1] | mode of inhibition [1] | further results
O=S(=O)(O)c1nc2ccccc2[nH]1 [1-H-benzimidazole-2-sulfonic acid, reference compound] | 9 µM | did not show any inhibition | – | – | – | – | –
O=S(=O)(O)c1ccc(O)c(S(=O)(=O)O)c1 [4-hydroxybenzene-1,3-disulfonate, reference compound] | – | did not show any inhibition | – | – | – | – | Ki (GR from B. anthracis): 59 µM
N[C@H](CC(Cc1ccccc1)C(=O)O)C(=O)O (stereo partly drawn) [(2R)-2-amino-4-benzylpentanedioic, (2R)-2-amino-4-benzylpentanedioic acid, reference compound] | – | did not show any inhibition | – | – | – | – | –
O=C(O)c1cccc(C(=O)O)n1 [dipicolinic acid] | 2700 µM | – | – | – | – | – | Ki (GR from B. anthracis; non-competitive inhibitor): 92 µM; IC50 [1]: 150 ± 30 µM
bis(2,4-bis(trichloromethyl)-1,3,5-triazapentadienato)-zinc(II) complex [(1)] | – | almost completely inhibit | at least 512 μg/ml | 35.3 ± 4.9 µM | could be observed also in the presence of EDTA | non-competitive | –
tris(2,4-bis(trichloromethyl)-1,3,5-triazapentadienate)-Mn(III) complex [(2)] | – | almost completely inhibit | at least 512 μg/ml | 10 ± 0.8 µM | could be observed also in the presence of EDTA | non-competitive | –
